This is an account of results in patent publication US20130030012A1, “COMPOUNDS” (Glaxo Group Limited, priority 2011, published 2013).

Assay [1] deals with T1, recombinant human Lp-PLA2 (Homo sapiens, UniProt Q13093).
T1 sequence (Q13093 22-441): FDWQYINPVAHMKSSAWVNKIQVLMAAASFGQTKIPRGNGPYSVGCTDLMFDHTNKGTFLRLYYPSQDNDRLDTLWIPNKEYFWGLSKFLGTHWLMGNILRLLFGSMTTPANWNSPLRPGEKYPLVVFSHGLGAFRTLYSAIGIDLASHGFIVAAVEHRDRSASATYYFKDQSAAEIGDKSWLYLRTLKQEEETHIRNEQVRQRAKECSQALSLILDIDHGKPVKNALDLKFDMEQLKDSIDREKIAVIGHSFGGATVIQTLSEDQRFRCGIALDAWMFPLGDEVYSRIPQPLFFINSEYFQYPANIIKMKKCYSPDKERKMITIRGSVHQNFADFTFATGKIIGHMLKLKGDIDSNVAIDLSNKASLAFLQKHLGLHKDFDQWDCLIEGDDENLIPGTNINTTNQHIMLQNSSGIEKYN
As to the kind of experiment: Recombinant human Lp-PLA2 assay (rhLp-PLA2, PED6 assay). Particulars: upper limit for pIC50 in this assay is 9.3. The assay is classed as biochemical. From the text:
(1) Recombinant Human Lp-PLA2 Assay (rhLp-PLA2) (Also Referred to as “PED6” Assay)
N-((6-(2,4-dinitrophenyl)amino)-hexanoyl)-2-(4,4-difluoro-5,7-dimethyl-4-bora-3a,4a-diaza-s-indacene-3-pentanoyl)-1-hexadecanoyl-sn-glycero-3-phosphoethanolamine, triethylammonium salt (PED6) is a commercially available fluorescently-labeled phospholipid, which is commercially available from Invitrogene and Molecular Probes. There is a quenching […] and a Bodipy fluorescein (FL) group in the sn2 position. Upon cleavage with Lp-PLA2, the Bodipy FL group is liberated and then may result in an increase in fluorescence. Inhibitors of Lp-PLA2 therefore prevent this cleavage and no fluorescent increase is observed.
The PED6 assay was run as an unquenched 10 μL assay. The source plate containing the compounds to be tested was prepared by making 1:3 (by volume) serial dilution of the compounds within DMSO on 384-well microplate. Then, 0.01 μL of the compounds on compound source plate were transferred into 384 well Greiner 784076 (black) plates using ECHO liquid dispenser. 5 μL of recombinant human Lp-PLA2 enzyme (4 nM (or 110 pM) rhLp-PLA2 in assay buffer of 50 mM HEPES, pH 7.4, 150 mM NaCl, 1 mM CHAPS) was added to each well of the plate. Plates were centrifuged for 10 sec at 500 rpm. After 30 minutes preincubation, 5 μL of substrate ([…] (or 5 μM) PED6 [from 5 mM DMSO stock] in assay buffer of 50 mM HEPES, pH 7.4, 150 mM NaCl, 1 mM CHAPS) was added to 384 well Greiner 784076 (black) plates. Plates were centrifuged for 10 sec at 500 rpm. The plate was covered to protect it from light and incubated for 20 min at room temperature. The plates were read for fluorescence intensity at ex: 480/em: 540 using ViewLux microplate imager for Envision spectrofluoroimeters pIC50 data, curve and QC analysis was conducted by using XL fit module in Excel.
The compounds described below were tested generally according to the PED6 assay described above.

The next assay concerns the target T2, Lp-PLA2 in human plasma (Homo sapiens, UniProt Q13093).
T2 construct: from tissue; host or cells: pooled human plasma
T2 sequence (Q13093 22-441): T1 sequence (Q13093 22-441)
In words: Lp-PLA2 human plasma assay (Thio-PAF assay). As to conditions: pooled human plasma; read-out: pIC50 values in the thio-PAF assay (converted). The assay is classed as biochemical. From the text: The human plasma assay utilizes a thioester analog of PAF (phosphatidylcholine), where hydrolysis yields to the formation of a phospholipid containing a free thiol group. The amount of thiol is quantitated continuously by reacting with CPM (7-diethylamino-3-(4′-maleimidylphenyl)-4-methylcoumarin), a maleimide which increases in fluoresence after Michael addition of thiols. This assay may detect the activity of Lp-PLA2 in human plasma, as determined by specific inhibition by Lp-PLA2 inhibitors.
The thio-PAF assay was run as a quenched 15 μL assay. Compounds source plate was prepared by making 1:3 (by volume) serial dilution of the compounds into pure DMSO on 384-well microplate. 0.01 μL of compounds on compound source plate were transferred to 384 well Greiner 784076 (black) low-volume plates by ECHO liquid dispenser. 8 μL pooled human plasma, which was previously aliquoted and frozen, was added. Plates were centrifuged for 10 sec at 500 rpm. After 30 minutes preincubation, 2 μL of substrate solution comprising 2.5 mM 2-thio-PAF [from ethanol stock], […] CPM [from a DMSO stock] and 3.2 mM NEM (N-ethylmaleimide) [made fresh daily in DMSO] in assay buffer of 50 mM HEPES, pH 7.4, 150 mM NaCl, 1 mM CHAPS was added to 384 well Greiner 784076 (black) low-volume plates by BRAVO liquid handling station. After 2 mins, reaction was quenched with 5 μL of 5% aqueous trifluoroacetic acid (TFA). Plates were covered to protect from light and incubated for 40 min at room temperature. Plates were read at ex: 380/em: 485 using—Envision microplate reader. pIC50 data, curve and QC analysis was conducted by using XLFit module in Excel.

Where [2] appears, read: Table 1, read-out: rhLp-PLA2 (PED6 assay) (pIC50) (converted).
The mark [3] stands for this setting: read-out: pIC50 values in the PED6 assay (converted).

Read-outs that look alike come from different tables or passages of the source.

As for `CN1CCCn2c1cc(OCc1ccc(Oc3cc(F)cc(F)c3)c(F)c1)nc2=O` [Example 58, 8-((4-(3,5-difluorophenoxy)-3-fluorobenzyl)oxy)-1-methyl-3,4-dihydro-1H-pyrimido[1,6-a]pyrimidin-6(2H)-one], the IC50 is below 0.501 nM in assay [1] (setting [2]), at most 1 nM in assay [1] (setting [3]) and at most 100 nM on Lp-PLA2 in human plasma.

Consider `CN1CCCn2c1cc(OCc1ccc(Oc3ccc(F)cc3)c(F)c1)nc2=O` [Example 74, 8-((3-fluoro-4-(4-fluorophenoxy)benzyl)oxy)-1-methyl-3,4-dihydro-1H-pyrimido[1,6-a]pyrimidin-6(2H)-one], for which the IC50 in assay [1] (setting [3]) is at most 10 nM; at Lp-PLA2 in human plasma it was at most 1000 nM.

For `O=c1nc(OCc2cc(F)c(Oc3ccc(C(F)(F)F)nc3)c(F)c2)cc2n1CCCN2` [Example 75, 8-((3,5-difluoro-4-((6-(trifluoromethyl)pyridin-3-yl)oxy)benzyl)oxy)-3,4-dihydro-1H-pyrimido[1,6-a]pyrimidin-6(2H)-one], the IC50 in assay [1] (setting [2]) is below 0.501 nM; in assay [1] (setting [3]), at most 1 nM; on Lp-PLA2 in human plasma, at most 100 nM.

Turning to `CN1CCCn2c1cc(OCc1ccc(Oc3cccnc3)c(C#N)c1)nc2=O` [Example 76, 5-(((1-methyl-6-oxo-2,3,4,6-tetrahydro-1H-pyrimido[1,6-a]pyrimidin-8-yl)oxy)methyl)-2-(pyridin-3-yloxy)benzonitrile], the IC50 in assay [1] (setting [2]) was 1.26 nM; in assay [1] (setting [3]), at most 10 nM; on Lp-PLA2 in human plasma, at most 100 nM.

Take `CN1CCCn2c1cc(OCc1ccc(Oc3cccc(C(F)(F)F)c3)cc1)nc2=O` [Example 77, 1-methyl-8-((4-(3-(trifluoromethyl)phenoxy)benzyl)oxy)-3,4-dihydro-1H-pyrimido[1,6-a]pyrimidin-6(2H)-one]: the values for the IC50 (in assay [1] (setting [3]); at Lp-PLA2 in human plasma) were at most 10 nM and at most 1000 nM, respectively.

`CN1CCCn2c1cc(OCc1cc(F)c(Oc3cccc(F)c3)c(F)c1)nc2=O` [Example 78, 8-((3,5-difluoro-4-(3-fluorophenoxy)benzyl)oxy)-1-methyl-3,4-dihydro-1H-pyrimido[1,6-a]pyrimidin-6(2H)-one]: the values for the IC50 (in assay [1] (setting [3]); at Lp-PLA2 in human plasma) were at most 10 nM and at most 1000 nM, respectively.

On to `CN1CCCn2c1cc(OCc1cc(F)c(Oc3cc(F)cc(F)c3)c(F)c1)nc2=O` [Example 79, 8-((4-(3,5-difluorophenoxy)-3,5-difluorobenzyl)oxy)-1-methyl-3,4-dihydro-1H-pyrimido[1,6-a]pyrimidin-6(2H)-one], for which the IC50 was 0.794 nM in assay [1] (setting [2]), at most 1 nM in assay [1] (setting [3]) and at most 100 nM at Lp-PLA2 in human plasma.

For `CN1CCCn2c1cc(OCc1ccc(Oc3cccc(F)c3)c(C#N)c1)nc2=O` [Example 80, 2-(3-fluorophenoxy)-5-(((1-methyl-6-oxo-2,3,4,6-tetrahydro-1H-pyrimido[6-a]pyrimidin-8-yl)oxy)methyl)benzonitrile], the IC50 in assay [1] (setting [3]) is at most 1 nM; at Lp-PLA2 in human plasma, at most 100 nM.

`CN1CCCn2c1cc(OCc1cc(F)c(Oc3cccc(C(F)(F)F)c3)c(F)c1)nc2=O` [Example 81, 8-((3,5-difluoro-4-(3-(trifluoromethyl)phenoxy)benzyl)oxy)-1-methyl-3,4-dihydro-1H-pyrimido[1,6-a]pyrimidin-6(2H)-one]: the IC50 in assay [1] (setting [3]) was at most 1 nM; at Lp-PLA2 in human plasma, at most 100 nM.

For `CN1CCCn2c1cc(OCc1cc(F)c(Oc3ccc(Cl)c(F)c3)c(F)c1)nc2=O` [Example 82, 8-((4-(4-chloro-3-fluorophenoxy)-3,5-difluorobenzyl)oxy)-1-methyl-3,4-dihydro-1H-pyrimido[1,6-a]pyrimidin-6(2H)-one], the IC50 in assay [1] (setting [3]) is at most 1 nM; at Lp-PLA2 in human plasma it was at most 100 nM.

`CN1CCCn2c1cc(OCc1cc(F)c(Oc3ccc(F)c(Cl)c3)c(F)c1)nc2=O` [Example 83, 8-((4-(3-chloro-4-fluorophenoxy)-3,5-difluorobenzyl)oxy)-1-methyl-3,4-dihydro-1H-pyrimido[1,6-a]pyrimidin-6(2H)-one]: the IC50 is below 0.501 nM in assay [1] (setting [2]), at most 1 nM in assay [1] (setting [3]) and at most 100 nM on Lp-PLA2 in human plasma.

Turning to `CN1CCCn2c1cc(OCc1ccc(Oc3ccc(F)c(Cl)c3)c(C#N)c1)nc2=O` [Example 84, 2-(3-chloro-4-fluorophenoxy)-5-(((1-methyl-6-oxo-2,3,4,6-tetrahydro-1H-pyrimido[1,6-a]pyrimidin-8-yl)oxy)methyl)benzonitrile], the IC50 in assay [1] (setting [3]) is at most 1 nM; on Lp-PLA2 in human plasma, at most 100 nM.

With `CN1CCCn2c1cc(OCc1ccc(Oc3cccc(C#N)c3)c(F)c1)nc2=O` [Example 85, 3-(2-fluoro-4-(((1-methyl-6-oxo-2,3,4,6-tetrahydro-1H-pyrimido[1,6-a]pyrimidin-8-yl)oxy)methyl)phenoxy)benzonitrile], the IC50 in assay [1] (setting [3]) is at most 10 nM; at Lp-PLA2 in human plasma it was at most 1000 nM.

Consider `CN1CCCn2c1cc(OCc1cc(F)c(Oc3ccc(F)cc3)c(F)c1)nc2=O` [Example 87, 8-((3,5-difluoro-4-(4-fluorophenoxy)benzyl)oxy)-1-methyl-3,4-dihydro-1H-pyrimido[1,6-a]pyrimidin-6(2H)-one], for which the IC50 in assay [1] (setting [3]) was at most 10 nM; at Lp-PLA2 in human plasma, at most 1000 nM.

As to `CN1CCCn2c1cc(OCc1cc(F)c(Oc3ccc(F)c(C(F)(F)F)c3)c(F)c1)nc2=O` [Example 88, 8-((3,5-difluoro-4-(4-fluoro-3-(trifluoromethyl)phenoxy)benzyl)oxy)-1-methyl-3,4-dihydro-1H-pyrimido[1,6-a]pyrimidin-6(2H)-one], the IC50 in assay [1] (setting [3]) was at most 1 nM; on Lp-PLA2 in human plasma it was at most 100 nM.

Take `CN1CCCn2c1cc(OCc1cc(F)c(Oc3ccc(C(F)(F)F)cc3)c(F)c1)nc2=O` [Example 89, 8-((3,5-difluoro-4-(4-(trifluoromethyl)phenoxy)benzyl)oxy)-1-methyl-3,4-dihydro-1H-pyrimido[1,6-a]pyrimidin-6(2H)-one]: the values for the IC50 (in assay [1] (setting [3]); at Lp-PLA2 in human plasma) were at most 10 nM and at most 100 nM, respectively.

As to `CN1CCCn2c1cc(OCc1cc(F)c(Oc3cccc(Cl)c3)c(F)c1)nc2=O` [Example 90, 8-((4-(3-chlorophenoxy)-3,5-difluorobenzyl)oxy)-1-methyl-3,4-dihydro-1H-pyrimido[1,6-a]pyrimidin-6(2H)-one], the IC50 was at most 1 nM in assay [1] (setting [3]) and at most 1000 nM on Lp-PLA2 in human plasma.

`O=c1nc(OCc2cc(F)c(Oc3ccc(F)c(F)c3)c(F)c2)cc2n1CCCN2` [Example 91, 8-((4-(3,4-difluorophenoxy)-3,5-difluorobenzyl)oxy)-3,4-dihydro-1H-pyrimido[1,6-a]pyrimidin-6(2H)-one]: the IC50 is at most 1 nM in assay [1] (setting [3]) and at most 100 nM at Lp-PLA2 in human plasma.

Turning to `N#Cc1cc(COc2cc3n(c(=O)n2)CCCN3)ccc1Oc1ccc(C(F)(F)F)cn1` [Example 92, 5-(((6-oxo-2,3,4,6-tetrahydro-1H-pyrimido[1,6-a]pyrimidin-8-yl)oxy)methyl)-2-((5-(trifluoromethyl)pyridin-2-yl)oxy)benzonitrile], the results for the IC50 (in assay [1] (setting [3]); on Lp-PLA2 in human plasma) were at most 10 nM and at most 100 nM, respectively.
